# From US9156829B2, “Cycloalkyl and heterocycloalkyl compounds as orexin receptor antagonists” (Takeda Pharmaceutical Company Limited, priority 2014, dated 2015)
# Key:
# human orexin receptor 2 = human orexin receptor 2 (Homo sapiens (Human), UniProt O43614); experiment: Orexin antagonist activity, intracellular calcium FLIPR assay, RBL-2H3 cells expressing human orexin receptor 2; assay type: cell-based; details: RBL-2H3 cells stably expressing human orexin receptor 2; orexin-A at approx. 80% maximal response; compound added 15 minutes before; read-out: Human Orexin2R IC50
# human orexin receptor 2, sequence (O43614 whole entry): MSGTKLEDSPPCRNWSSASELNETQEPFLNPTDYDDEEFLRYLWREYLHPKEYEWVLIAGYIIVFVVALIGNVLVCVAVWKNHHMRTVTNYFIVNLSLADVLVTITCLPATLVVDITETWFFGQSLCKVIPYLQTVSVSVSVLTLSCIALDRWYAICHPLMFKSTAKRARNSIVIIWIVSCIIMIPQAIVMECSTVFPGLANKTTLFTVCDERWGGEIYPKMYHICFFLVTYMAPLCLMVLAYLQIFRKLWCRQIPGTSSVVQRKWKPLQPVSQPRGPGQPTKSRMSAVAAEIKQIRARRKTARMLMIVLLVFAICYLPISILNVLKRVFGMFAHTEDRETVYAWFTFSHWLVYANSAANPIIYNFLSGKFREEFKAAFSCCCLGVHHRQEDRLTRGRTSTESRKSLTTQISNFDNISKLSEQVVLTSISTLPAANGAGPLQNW
# human orexin receptor 1 = human orexin receptor 1 (Homo sapiens (Human), UniProt O43613); experiment: Orexin antagonist activity, intracellular calcium FLIPR assay, RBL-2H3 cells expressing human orexin receptor 1; assay type: cell-based; details: RBL-2H3 cells stably expressing human orexin receptor 1; orexin-A at approx. 80% maximal response; compound added 15 minutes before; read-out: Human Orexin1R IC50
# human orexin receptor 1, sequence (O43613 whole entry): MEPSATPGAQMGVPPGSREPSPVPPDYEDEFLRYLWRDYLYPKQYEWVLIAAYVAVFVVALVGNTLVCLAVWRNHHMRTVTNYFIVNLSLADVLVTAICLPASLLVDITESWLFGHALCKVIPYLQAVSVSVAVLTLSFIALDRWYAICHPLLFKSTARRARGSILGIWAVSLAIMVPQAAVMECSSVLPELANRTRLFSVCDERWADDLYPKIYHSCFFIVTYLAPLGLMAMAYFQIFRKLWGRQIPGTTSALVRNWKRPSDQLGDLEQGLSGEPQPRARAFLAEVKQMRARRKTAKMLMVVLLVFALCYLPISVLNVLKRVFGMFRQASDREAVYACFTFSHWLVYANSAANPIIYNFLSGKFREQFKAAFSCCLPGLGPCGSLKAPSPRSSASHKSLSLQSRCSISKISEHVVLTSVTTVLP
Structure (SMILES),IC50 (human orexin receptor 2),IC50 (human orexin receptor 1)
"O=C(N[C@H]1CCC[C@@H]1Nc1cnc(C(F)(F)F)cn1)c1cc(F)ccc1-c1ncccn1 [Example 39, 5-Fluoro-2-(pyrimidin-2-yl)-N-[(1S,2S)-2-{[5-(trifluoromethyl)pyrazin-2-yl]amino}cyclopentyl]benzamide]",> 10000 nM,81 nM
"CN(c1cnc(C(F)(F)F)cn1)[C@H]1CCC[C@@H]1NC(=O)c1c(F)cccc1-n1nccn1 [Example 75, 2-Fluoro-N-[(1S,2S)-2-{methyl[5-(trifluoromethyl)pyrazin-2-yl]amino}cyclopentyl]-6-(2H-1,2,3-triazol-2-yl)benzamide]",> 10000 nM,279 nM
"O=C(N[C@H]1CCC[C@@H]1Nc1ncc(C(F)(F)F)cc1F)c1ncccc1-n1nccn1 [Example 123, N-[(1S,2S)-2-{[3-Fluoro-5-(trifluoromethyl)pyridin-2-yl]amino}cyclopentyl]-3-(2H-1,2,3-triazol-2-yl)pyridine-2-carboxamide]",> 10000 nM,18 nM
"Cc1nc(C(F)(F)F)cnc1N[C@H]1CCC[C@@H]1NC(=O)c1ncccc1-n1nccn1 [Example 76, N-[(1S,2S)-2-{[3-Methyl-5-(trifluoromethyl)pyrazin-2-yl]amino}cyclopentyl]-3-(2H-1,2,3-triazol-2-yl)pyridine-2-carboxamide]",> 10000 nM,33 nM
"O=C(N[C@H]1CCC[C@@H]1Nc1cnc(C(F)(F)F)cn1)c1ncccc1OC(F)(F)F [Example 58, 3-(Trifluoromethoxy)-N-[(1S,2S)-2-{[5-(trifluoromethyl)pyrazin-2-yl]amino}cyclopentyl]pyridine-2-carboxamide]",> 10000 nM,934 nM
"Cc1cc(C(F)(F)F)cnc1N[C@H]1CCC[C@@H]1NC(=O)c1ncccc1-c1ncccn1 [Example 137, N-[(1S,2S)-2-{[3-Methyl-5-(trifluoromethyl)pyridin-2-yl]amino}cyclopentyl]-3-(pyrimidin-2-yl)pyridine-2-carboxamide]",> 10000 nM,34 nM
"Cc1ccc(-n2ccnn2)c(C(=O)N[C@H]2CCC[C@@H]2Nc2cnc(C(F)(F)F)cn2)c1 [Example 42, 5-Methyl-2-(1H-1,2,3-triazol-1-yl)-N-[(1S,2S)-2-{[5-(trifluoromethyl)pyrazin-2-yl]amino}cyclopentyl]benzamide]",> 10000 nM,261 nM
"CC1(Nc2ncc(C(F)(F)F)cc2F)CCCC1NC(=O)c1ncccc1-c1ncccn1 (stereo not drawn) [Example 146, N-(2-{[3-Fluoro-5-(trifluoromethyl)pyridin-2-yl]amino}-2-methylcyclopentyl)-3-(pyrimidin-2-yl)pyridine-2-carboxamide]",> 10000 nM,7 nM
"C[C@]1(Nc2cnc(C(F)(F)F)cn2)CCC[C@@H]1NC(=O)c1ccccc1-c1ncccn1 [Example 91, N-[(1S,2S)-2-Methyl-2-{[5-(trifluoromethyl)pyrazin-2-yl]amino}cyclopentyl]-2-(pyrimidin-2-yl)benzamide]",> 10000 nM,6 nM
"Cc1noc(-c2ccccc2C(=O)N[C@H]2CCC[C@@H]2Nc2ncc(C(F)(F)F)cc2F)n1 [Example 140, N-[(1S,2S)-2-{[3-Fluoro-5-(trifluoromethyl)pyridin-2-yl]amino}cyclopentyl]-2-(3-methyl-1,2,4-oxadiazol-5-yl)benzamide]",> 10000 nM,35 nM
"O=C(NC1CC(F)(F)CC1Nc1ccc(C(F)(F)F)cn1)c1ccccc1-n1nccn1 (single isomer, unassigned) [Example 129, N-(4,4-Difluoro-2-{[5-(trifluoromethyl)pyridin-2-yl]amino}cyclopentyl)-2-(2H-1,2,3-triazol-2-yl)benzamide]",8750 nM,633 nM
"O=C(NC1CC(F)(F)CC1Nc1ccc(C(F)(F)F)cn1)c1ccccc1-n1nccn1 (single isomer, unassigned) [Example 128, N-(4,4-Difluoro-2-{[5-(trifluoromethyl)pyridin-2-yl]amino}cyclopentyl)-2-(2H-1,2,3-triazol-2-yl)benzamide]",> 10000 nM,33 nM
"O=C(N[C@H]1CCC[C@@H]1Nc1cnc(C(F)(F)F)cn1)c1c(F)cccc1F [Example 33, 2,6-Difluoro-N-[(1S,2S)-2-{[5-(trifluoromethyl)pyrazin-2-yl]amino}cyclopentyl]benzamide]",> 10000 nM,890 nM
"C[C@]1(Nc2cnc(C(F)(F)F)cn2)CCC[C@@H]1NC(=O)c1ncccc1-n1cccn1 [Example 85, N-[(1S,2S)-2-Methyl-2-{[5-(trifluoromethyl)pyrazin-2-yl]amino}cyclopentyl]-3-(1H-pyrazol-1-yl)pyridine-2-carboxamide]",> 10000 nM,18 nM
"CCOc1cccnc1C(=O)N[C@H]1CCC[C@]1(C)Nc1cnc(C(F)(F)F)cn1 [Example 86, 3-Ethoxy-N-[(1S,2S)-2-methyl-2-{[5-(trifluoromethyl)pyrazin-2-yl]amino}cyclopentyl]pyridine-2-carboxamide]",> 10000 nM,129 nM
"CCOc1ccc(C)cc1C(=O)N[C@H]1CCC[C@@H]1Nc1cnc(C(F)(F)F)cn1 [Example 29, 2-Ethoxy-5-methyl-N-[(1S,2S)-2-{[5-(trifluoromethyl)pyrazin-2-yl]amino}cyclopentyl]benzamide]",> 10000 nM,279 nM
"CC1(Nc2ccc(C(F)(F)F)cn2)CCCC1NC(=O)c1ncccc1-c1ncccn1 (stereo not drawn) [Example 156, N-(2-Methyl-2-{[5-(trifluoromethyl)pyridin-2-yl]amino}cyclopentyl)-3-(pyrimidin-2-yl)pyridine-2-carboxamide]",> 10000 nM,11 nM

# Other lines, results leading:
IC50 (human orexin receptor 2),IC50 (human orexin receptor 1),Structure (SMILES)
> 10000 nM,321 nM,"O=C(N[C@H]1CCC[C@@H]1Nc1cnc(C(F)(F)F)cn1)c1cc(F)cc(F)c1-n1nccn1 [Example 61, 3,5-Difluoro-2-(2H-1,2,3-triazol-2-yl)-N-[(1S,2S)-2-{[5-(trifluoromethyl)pyrazin-2-yl]amino}cyclopentyl]benzamide]"
> 10000 nM,65 nM,"O=C(N[C@H]1CCC[C@@H]1Nc1ccc(C(F)(F)F)cn1)c1ccccc1-n1nccn1 [Example 12, 2-(2H-1,2,3-Triazol-2-yl)-N-[(1S,2S)-2-{[5-(trifluoromethyl)pyridin-2-yl]amino}cyclopentyl]benzamide]"
> 10000 nM,248 nM,"CN(c1cnc(C(F)(F)F)cn1)[C@H]1CCC[C@@H]1NC(=O)c1ccccc1-n1nccn1 [Example 73, N-[(1S,2S)-2-{Methyl[5-(trifluoromethyl)pyrazin-2-yl]amino}cyclopentyl]-2-(2H-1,2,3-triazol-2-yl)benzamide]"
> 10000 nM,51 nM,"Cc1ccc(-n2nccn2)c(C(=O)N[C@H]2CCC[C@@H]2Nc2ccc(C(F)(F)F)cn2)c1 [Example 6, 5-Methyl-2-(2H-1,2,3-triazol-2-yl)-N-[(1S,2S)-2-{[5-(trifluoromethyl)pyridin-2-yl]amino}cyclopentyl]benzamide]"
3550 nM,43 nM,"CC(C)c1nc(C(F)(F)F)cnc1N[C@H]1CCC[C@@H]1NC(=O)c1ccccc1-n1nccn1 [Example 110, N-[(1S,2S)-2-{[3-(Propan-2-yl)-5-(trifluoromethyl)pyrazin-2-yl]amino}cyclopentyl]-2-(2H-1,2,3-triazol-2-yl)benzamide]"
> 10000 nM,476 nM,"O=C(N[C@H]1CCC[C@@H]1Nc1cnc(C2CC2)cn1)c1ccccc1-n1nccn1 [Example 112, N-[(1S,2S)-2-[(5-Cyclopropylpyrazin-2-yl)amino]cyclopentyl]-2-(2H-1,2,3-triazol-2-yl)benzamide]"
6160 nM,665 nM,"O=C(NC1CCCC1Cc1cc(C(F)(F)F)ccn1)c1ccccc1-n1nccn1 (stereo not drawn) [Example 22, 2-(2H-1,2,3-Triazol-2-yl)-N-(2-{[4-(trifluoromethyl)pyridin-2-yl]methyl}cyclopentyl)benzamide]"
> 10000 nM,693 nM,"O=C(N[C@H]1CCC[C@@H]1Nc1cnc(C(F)(F)F)cn1)c1ccccc1-n1ccnn1 [Example 35, 2-(1H-1,2,3-Triazol-1-yl)-N-[(1S,2S)-2-{[5-(trifluoromethyl)pyrazin-2-yl]amino}cyclopentyl]benzamide]"
> 10000 nM,57 nM,"O=C(N[C@H]1CCC[C@@H]1Nc1cnc(C(F)(F)F)cn1)c1c(F)ccc(F)c1-n1nccn1 [Example 64, 3,6-Difluoro-2-(2H-1,2,3-triazol-2-yl)-N-[(1S,2S)-2-{[5-(trifluoromethyl)pyrazin-2-yl]amino}cyclopentyl]benzamide]"
> 10000 nM,69 nM,"O=C(N[C@H]1CCC[C@@H]1Nc1cnc(C(F)(F)F)cn1)c1cc(Cl)ccc1-n1nccn1 [Example 52, 5-Chloro-2-(2H-1,2,3-triazol-2-yl)-N-[(1S,2S)-2-{[5-(trifluoromethyl)pyrazin-2-yl]amino}cyclopentyl]benzamide]"
7540 nM,21 nM,"CC1(Nc2cnc(C(F)(F)F)cn2)CCCC1NC(=O)c1ccccc1-n1nccn1 (stereo not drawn) [Example 82, N-(2-Methyl-2-{[5-(trifluoromethyl)pyrazin-2-yl]amino}cyclopentyl)-2-(2H-1,2,3-triazol-2-yl)benzamide]"
> 10000 nM,7 nM,"C[C@]1(Nc2cnc(C(F)(F)F)cn2)CCC[C@@H]1NC(=O)c1ccccc1-n1nccn1 [Example 81, N-[(1S,2S)-2-Methyl-2-{[5-(trifluoromethyl)pyrazin-2-yl]amino}cyclopentyl]-2-(2H-1,2,3-triazol-2-yl)benzamide]"
> 10000 nM,241 nM,"O=C(N[C@H]1CCC[C@@H]1Nc1cnc(C(F)(F)F)cn1)c1cc(C(F)(F)F)ccc1-n1nccn1 [Example 45, 2-(2H-1,2,3-Triazol-2-yl)-5-(trifluoromethyl)-N-[(1S,2S)-2-{[5-(trifluoromethyl)pyrazin-2-yl]amino}cyclopentyl]benzamide]"
